Results on two compounds are retold here after patent US20200054682A1, “METHODS AND COMPOSITIONS FOR TREATING MITOCHONDRIAL DISEASE OR DISORDERS AND HETEROPLASMY” (Imel Biotherapeutics, Inc., priority 2018, published 2020).

Entries after “also recorded” stand apart in the source; their conditions may differ.

One test concerns NHDF recipient cells. In words: engulfment of DsRed-labeled exogenous mitochondria by FACS with rapamycin or palmitic acid. The test is classed as cell-based, human. Conditions: ρ(−) NHDF cells; rapamycin 50 ng/ml, palmitic acid 50 μM; FACS day 8. How it is done: Rapamycin was added into the culture media at the concentration of 50 ng/ml for 24 hours, and cells were exposed to glucose and essential amino acids free media without serum for 1 hour to simulate starvation. […] The ratio of phosphorylated AMPK to AMPK and phosphorylated p70 S6 kinase to p70 S6 kinase, which is a downstream target of mTORC1, were examined by using capillary electrophoresis, Wes™ (Protein Simple).
Next, we examined the effects of rapamycin and palmitic acid upon mitochondria engulfment by treating the cells with rapamycin or palmitic acid simultaneously during the mitochondria co-cultivation. A scheme of the protocol is illustrated in FIG. 6I. Briefly, the NHDF recipient cells were transfected with the MTS-XbaI expression vector and cultured with or without rapamycin, or with or without palmitic acid (PA). Puromycin selection for ρ(−) cells expressing the MTS-XbaI was performed after 48 hours. On day 6, transfer of isolated mitochondria marked with DsRed from EPC100 cells was performed. On Day8, FACS analyses were performed to detect the donor mitochondria by measuring DsRed expression in the NHDF recipient cells.

The test system of a further test is mtDNA. Kind of test: mtDNA copy number by qPCR, MTS-XbaIR versus EtBr, in EPC100 cells. The test is classed as cell-based, human. Conditions: qPCR relative to Actb, EtBr 50 ng/mL, untreated cells 6189.6867. How it is done: The efficiency and efficacy of the MTS-XbaIR expression vector relative to the conventional method that employs ethidium bromide (EtBr) was evaluated according to the scheme illustrated in FIG. 2A. The placental venous endothelium-derived cell line EPC100 with DsRed labeled mitochondria were cultured in pyruvate-free DMEM (Wako cat #044-29765) with 10% fetal bovine serum (FBS) and 1% penicillin/streptomycin (P/S), and at day 0 the cells were either untreated (“normal”), transfected with the MTS-XbaIR expression vector (“MTS-XbaIR”), or treated with 50 ng/mL of EtBr. At day 1, the cells were cultured in DMEM with 10% FBS, and 1% P/S supplemented with 100 μg/mL pyruvate and 50 μg/mL uridine. […] Cells with this partial reduction of mtDNA were termed as ρ(−) cells.

`CCCCCCCCCCCCCCCC(=O)O` [palmitic acid]: the “engulfment of DsRed-labeled isolated exogenous mitochondria” value in the test on NHDF recipient cells is listed as “decreased; also recorded: clearly suppressed”.
Consider `CC[n+]1c(-c2ccccc2)c2cc(N)ccc2c2ccc(N)cc21` [EtBr, ethidium bromide], for which, in the test with mtDNA, the mtDNA copy number was determined as 5169.1258.
